Data as given in PubChem BioAssay (NCI).
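Where inhibition never reached the appropriate level, the endpoint shown equals the highest concentration tested. Otherwise, values were interpolated linearly from a five-concentration, 48-hour dose response in 96-well plates. TGI: total growth inhibition.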

How the values were obtained:
Assay in all cases: growth of human tumour cells (NCI), 48 h
COLO 205 colon = tested on: COLO 205 colon
DLD-1 colon = tested on: DLD-1 colon
U251 CNS = tested on: U251 CNS
786-0 renal = tested on: 786-0 renal
NCI-H460 lung = tested on: NCI-H460 lung
UO-31 renal = tested on: UO-31 renal
HCT-116 colon = tested on: HCT-116 colon
LOX IMVI melanoma = tested on: LOX IMVI melanoma
HL-60(TB) leukemia = tested on: HL-60(TB) leukemia
TK-10 renal = tested on: TK-10 renal
M19-MEL melanoma = tested on: M19-MEL melanoma
SK-MEL-5 melanoma = tested on: SK-MEL-5 melanoma
OVCAR-3 ovarian = tested on: OVCAR-3 ovarian
A549 NSCLC = tested on: A549 NSCLC
K-562 leukemia = tested on: K-562 leukemia
SF-539 CNS = tested on: SF-539 CNS
RXF 393 renal = tested on: RXF 393 renal
SK-MEL-28 melanoma = tested on: SK-MEL-28 melanoma
HT29 colon = tested on: HT29 colon
SF-295 CNS = tested on: SF-295 CNS
NCI-H23 lung = tested on: NCI-H23 lung
SNB-78 CNS = tested on: SNB-78 CNS
EKVX NSCLC = tested on: EKVX NSCLC
ACHN renal = tested on: ACHN renal
SK-MEL-2 melanoma = tested on: SK-MEL-2 melanoma
DMS 273 small cell lung = tested on: DMS 273 small cell lung
HCC-2998 colon = tested on: HCC-2998 colon
SK-OV-3 ovarian = tested on: SK-OV-3 ovarian
MOLT-4 leukemia = tested on: MOLT-4 leukemia
OVCAR-8 ovarian = tested on: OVCAR-8 ovarian
UACC-62 melanoma = tested on: UACC-62 melanoma
SR leukemia = tested on: SR leukemia
HCT-15 colon = tested on: HCT-15 colon
SN12C renal = tested on: SN12C renal
OVCAR-4 ovarian = tested on: OVCAR-4 ovarian
SNB-75 CNS = tested on: SNB-75 CNS
M14 melanoma = tested on: M14 melanoma
SW-620 colon = tested on: SW-620 colon
KM12 colon = tested on: KM12 colon
SNB-19 CNS = tested on: SNB-19 CNS
SF-268 CNS = tested on: SF-268 CNS
UACC-257 melanoma = tested on: UACC-257 melanoma
NCI-H522 lung = tested on: NCI-H522 lung
XF 498 CNS = tested on: XF 498 CNS
IGROV1 ovarian = tested on: IGROV1 ovarian
CCRF-CEM leukemia = tested on: CCRF-CEM leukemia
HOP-62 NSCLC = tested on: HOP-62 NSCLC
KM20L2 colon = tested on: KM20L2 colon
MALME-3M melanoma = tested on: MALME-3M melanoma
NCI-H226 lung = tested on: NCI-H226 lung
LXFL 529 NSCLC = tested on: LXFL 529 NSCLC

CCC(C)CNC1=C(NC(C)=O)C(=O)c2ccccc2C1=O (stereo unspecified) gave a TGI (COLO 205 colon) of over 100 µM, a TGI (DLD-1 colon) of over 100 µM and a TGI (U251 CNS) of over 100 µM. The TGI (786-0 renal) was over 100 µM, the TGI (NCI-H460 lung) was over 100 µM and the TGI (UO-31 renal) was over 100 µM. It also gave a TGI (HCT-116 colon) of over 100 µM, a TGI (LOX IMVI melanoma) of over 100 µM and a TGI (HL-60(TB) leukemia) of over 100 µM. For the same molecule, the TGI (TK-10 renal) was over 100 µM, the TGI (M19-MEL melanoma) was 42.6 µM and the TGI (SK-MEL-5 melanoma) was over 100 µM. It also gave a TGI (OVCAR-3 ovarian) of over 100 µM, a TGI (A549 NSCLC) of over 100 µM and a TGI (K-562 leukemia) of over 100 µM. It also gave a TGI (SF-539 CNS) of over 100 µM, a TGI (RXF 393 renal) of over 100 µM and a TGI (SK-MEL-28 melanoma) of over 100 µM. For the same molecule, the TGI (HT29 colon) was over 100 µM, the TGI (SF-295 CNS) was over 100 µM and the TGI (NCI-H23 lung) was over 100 µM. The TGI (SNB-78 CNS) was over 100 µM, the TGI (EKVX NSCLC) was over 100 µM and the TGI (ACHN renal) was over 100 µM. It also gave a TGI (SK-MEL-2 melanoma) of over 100 µM, a TGI (DMS 273 small cell lung) of over 100 µM and a TGI (HCC-2998 colon) of over 100 µM. It also gave a TGI (SK-OV-3 ovarian) of over 100 µM, a TGI (MOLT-4 leukemia) of over 100 µM and a TGI (OVCAR-8 ovarian) of over 100 µM. For the same molecule, the TGI (UACC-62 melanoma) was over 100 µM, the TGI (SR leukemia) was over 100 µM and the TGI (HCT-15 colon) was over 100 µM. It also gave a TGI (SN12C renal) of over 100 µM, a TGI (OVCAR-4 ovarian) of over 100 µM and a TGI (SNB-75 CNS) of over 100 µM. It also gave a TGI (M14 melanoma) of over 100 µM, a TGI (SW-620 colon) of over 100 µM and a TGI (KM12 colon) of over 100 µM. It also gave a TGI (SNB-19 CNS) of over 100 µM, a TGI (SF-268 CNS) of over 100 µM and a TGI (UACC-257 melanoma) of over 100 µM. The TGI (NCI-H522 lung) was over 100 µM, the TGI (XF 498 CNS) was over 100 µM and the TGI (IGROV1 ovarian) was over 100 µM. The TGI (CCRF-CEM leukemia) was over 100 µM, the TGI (HOP-62 NSCLC) was over 100 µM and the TGI (KM20L2 colon) was over 100 µM. It also gave a TGI (MALME-3M melanoma) of over 100 µM, a TGI (NCI-H226 lung) of over 100 µM and a TGI (LXFL 529 NSCLC) of over 100 µM.
